Like-named read-outs stand apart in the source and are kept apart here.
How the values were obtained:
[1] = Metabolic stability in hepatocytes, beagle dogs; type: in vitro ADME
Description: Purpose of the assay: Metabolic stabilities of assay compounds in hepatocytes of CD-1 mice, SD rats, beagle dogs, cynomolgus monkeys, and human were assayed, respectively.
Procedure of the assay: Several 96-well sample precipitation plates were prepared and named T0, T15, T30, T60, T90, T120, TO-MC, T120-MC and blank substrates, respectively. The recovery medium and incubation medium were taken out in advance and placed in a 37° C. water bath for pre-heating. Cryopreserved hepatocytes were removed from the liquid nitrogen tank and immediately immersed in a 37° C. water bath (approximately 90 seconds). After the cryopreserved hepatocytes had thawed and loosened, they were poured into a centrifuge tube containing 40 mL of recovery medium, and the tube was gently inverted to allow the cells to be resuspended in the recovery medium. The cells were centrifuged at 100×g at room temperature for 5 min, and the supernatant was removed. The hepatocytes were resuspended in an appropriate volume of incubation medium, and the cell viability was calculated by Trypan Blue staining method. 198 μL of hepatocyte suspension (0.51×10^6 cells/mL) was added to the preheated incubation plate. For the culture medium control group, 198 μL of hepatocyte-free incubation medium was added to T0-MC and T120-MC incubation plate. All incubation plates were pre-incubated in a 37° C. incubator for 10 minutes. Then 2 μL of working solutions of the assay sample and the control compound were added, respectively, and the mixture was mixed well. The incubation plate was immediately put into the shaker in the incubator, and the reaction was initiated while starting the timer. For each time point of each compound, 2 duplicate samples were prepared. The incubation conditions were 37° C., saturated humidity, and 5% CO2. In the assay system, the final concentration of the assay sample was 1 μM, the final concentration of the control sample was 3 μM, the final concentration of hepatocytes was 0.5×10^6 cells/mL, and the final concentration of the total organic solvent was 0.96%, of which the final concentration of DMSO was 0.1%. At the end of the incubation for the corresponding time point, the incubation plate was taken out, and 25 μL of a mixture of compound and control compound with cells was added to the sample plate containing 125 μL of stop solution (200 ng/mL tolbutamide and labetalol in acetonitrile). For the Blank sample plate, 25 μL of hepatocyte-free incubation medium was added directly. After sealing, all sample plates were shaken on a shaker at 600 rpm for 10 minutes, and then centrifuged at 3220×g for 20 minutes. Supernatants of the assay sample and the control sample were diluted with ultrapure water at a ratio of 1:3. All samples were mixed well and analyzed by LC/MS/MS.

[2] = Pharmacokinetics by oral administration and intravenous injection in SD rats; type: in vivo; settings: for AUCu: AUC0-last × PPB(Unbound %); for Peak concentration, Cmax, u: Cmax × PPB(Unbound %); for Cmax: read-out: Peak concentration, Cmax; for Vd: SD, iv, 2 mg/kg
Description: 1) Assay on the Pharmacokinetics of the Assay Compounds by Oral Administration and Intravenous Injection in SD Rats
The assay compound was mixed with […] (10% hydroxypropyl-β-cyclodextrin) solution. The mixture was vortexed and sonicated to prepare a 1 mg/mL clear solution, which was filtered through a microporous membrane for later use. Male SD rats aged 7 to 10 weeks were selected, and administered candidate compound solutions intravenously or orally. Whole blood was collected for a certain period of time, and prepared to obtain plasma. Drug concentration was analyzed by LC-MS/MS method, and pharmacokinetic parameters were calculated by Phoenix WinNonlin software (Pharsight, USA).

[3] = tested on: KRAS^G12C-mutated H358 cells; assay: H358 cell assay: inhibition of proliferation (CellTiter-Glo, 5 days); type: cell-based; settings: Homo sapiens, 120 h; NCI-H358 cells, 5 days incubation
Description: Compounds were assayed for IC50 of inhibition of proliferation of KRAS^G12C-mutated H358 cells.
The main instrument used in this assay was a Nivo multi-label analyzer (PerkinElmer).
2.4 Method of the Assay: • 1) NCI-H358 cells were inoculated in a white 96-well plate, and each well contained 80 μL of cell suspension and 4000 NCI-H358 cells. […] The assay was carried out in duplicate. 78 μL of medium was added to the intermediate plate, and then 2 μL of the serially diluted compound was transferred to each well of the intermediate plate according to the corresponding position. After mixing well, 20 μL per well was transferred to the cell plate. […] The cell plate was incubated in a carbon dioxide incubator for 5 days. Another cell plate was prepared, and the signal value of the cell plate was read on the day of compound addition as the maximum value (Max value in the equation below) to participate in data analysis. 25 μL of cell viability chemiluminescence detection reagent was added to each well of the cell plate, and the plate was incubated at room temperature for 10 minutes to stabilize the luminescence signal. A multi-label analyzer was used for reading the plate. • 3) […]

[4] = Protein binding rate by equilibrium dialysis, CD-1 mice plasma; type: in vitro ADME; settings: CD-1, mouse, plasma; mice, as listed in PK Table 9; read-out: Plasma protein unbound rate PPB (Unbound %)
Description: (§1) Purpose of the assay: Protein binding rate of the assay compounds in plasma of CD-1 mice, SD rats, beagle dogs, cynomolgus monkeys and human was determined by equilibrium dialysis.
(§2) Procedure of the assay: Plasma samples with a compound concentration of 2 μM were prepared using plasma of the above five species, placed in a 96-well equilibrium dialysis device, and dialyzed with phosphate buffer solution at 37±1° C. for 4 hours. Warfarin was used as the control compound in this assay. The concentrations of the assay compounds in plasma and dialysis buffer were determined by LC-MS/MS method.

[5] = Protein binding rate by equilibrium dialysis, SD rats plasma; type: in vitro ADME; settings: rat, plasma; SD rats, as listed in PK Table 8; read-out: Plasma protein unbound rate PPB (Unbound %)
Description: as §1, §2

[6] = intravenous injection, 2.0 mg/kg
[7] = oral, 9.7 mg/kg (8B), 9.8 mg/kg (17)
[8] = male, rat, plasma, oral, 9.7 mg/kg (8B), 9.8 mg/kg (17)

**Q.** With `C=C(F)C(=O)N1CCN(c2nc(OCC3CCCN3C)nc3c2COC(c2c(F)c(N)cc(C)c2C(F)(F)F)C3)CC1CC#N.Cl` (single isomer, unassigned) [Compound 8B hydrochloride] as the compound, how does the “CLint(hep)” value ([1]; 1 μM) read?
**A.** Its value is less than 6.4 μL/min/10^6.

**Q.** What about the “CLint(liver)” value ([1]; 1 μM) of the same compound?
**A.** Its value is less than 44 mL/min/kg.

**Q.** What about the T1/2 ([1]; 1 μM) of the same compound?
**A.** The T1/2 was greater than 216.8 min.

**Q.** And the AUC0-last [2, 6]?
**A.** Its AUC0-last is 544 nM·h.

**Q.** And the “Apparent volume of distribution, Vdss” value [2, 6]?
**A.** The value was 17.9 L/kg.

**Q.** And the “Clearance rate, CL” value [2, 6]?
**A.** Its value is 85.2 mL/min/kg.

**Q.** And the “Half-life period, T1/2” value [2, 6]?
**A.** Its value is 2.8 h.

**Q.** And the AUCu [2, 6]?
**A.** Its AUCu is 53.3 nM·h.

**Q.** What about the “Apparent volume of distribution, Vdss, u” value ([2]; intravenous injection, 2.0 mg/kg, Vdss/PPB(Unbound %)) of the same compound?
**A.** Its value is 203 L/kg.

**Q.** What about the AUC0-last [2, 7] of the same compound?
**A.** Its AUC0-last is 1211 nM·h.

**Q.** And the “Bioavailability F” value [2, 7]?
**A.** The value was 44.5%.

**Q.** What about the “Time-to-peak, Tmax” value [2, 7] of the same compound?
**A.** The value was 1.5 h.

**Q.** What about the AUCu [2, 7] of the same compound?
**A.** Its AUCu is 119 nM·h.

**Q.** What about the “Peak concentration, Cmax, u” value [2, 7] of the same compound?
**A.** Its value is 21.3 nM.

**Q.** What about the Cmax [2, 7] of the same compound?
**A.** Its Cmax is 218 nM.

**Q.** Which results are given for `C=C(F)C(=O)N1CCN(c2nc(OC[C@@]34CCCN3C[C@H](F)C4)nc3c2COC(c2c(F)c(N)cc(C)c2C(F)(F)F)C3)C[C@@H]1CC#N` (stereo partly drawn) [Compound 17]?
**A.** IC50 [3]: 0.6 nM; fraction unbound at 4 h, 2 μM [4]: 0.0154; fraction unbound at 4 h, 2 μM [5]: 0.048; CLint(hep) ([1]; 1 μM): 7.6 μL/min/10^6; half-life at 1 μM ([1]; dog, cryopreserved hepatocytes): 182 min; CLint scaled at 1 μM ([1]; dog, cryopreserved hepatocytes, read-out: CLint(liver)): 52.3 mL/min/kg; AUCu [2, 6]: 31.3 nM·h; Vd ([2]; male, rat, plasma, intravenous injection, 2.0 mg/kg, Vdss/PPB(Unbound %), read-out: Apparent volume of distribution, Vdss, u): 221 L/kg; Vd ([2]; male, rat, plasma, intravenous injection, 2.0 mg/kg, read-out: Apparent volume of distribution, Vdss): 10.6 L/kg; AUC(0-t) ([2]; male, rat, plasma, intravenous injection, 2.0 mg/kg): 0.653 µM·h; clearance ([2]; male, rat, plasma, intravenous injection, 2.0 mg/kg, read-out: Clearance rate, CL): 71.5 mL/min/kg; half-life ([2]; male, rat, plasma, intravenous injection, 2.0 mg/kg, read-out: Half-life period, T1/2 (converted)): 114 min; AUC(0-t) [2, 8]: 0.995 µM·h; bioavailability ([2]; male, rat, plasma, oral, 9.7 mg/kg (8B), 9.8 mg/kg (17), read-out: Bioavailability F): 30.5%; Cmax [2, 8]: 220 nM; Tmax ([2]; male, rat, plasma, oral, 9.7 mg/kg (8B), 9.8 mg/kg (17), read-out: Time-to-peak, Tmax): 1.5 h; AUCu [2, 7]: 47.8 nM·h; Peak concentration, Cmax, u [2, 7]: 10.6 nM
